Data as given in patent US12534444B2, “Treatment of cancer/inhibition of metastasis” (Celex Oncology Innovations Limited, priority 2010, dated 2026).

Tested on: MDA-MB-231 cells
Test: Single-cell adhesion assay (SCAMA, detachment negative pressure)
Assay type: cell-based, human
Settings: 24 hours
Procedure: FIG. 4 is a schematic illustration of the single-cell adhesion measurement apparatus (SCAMA) first described in the paper by Palmer et al. (2008). Human breast cancer cells from the MDA-MB-231 cell line were plated at a density of 2.5×10^4 cells/ml and left to settle in a cell culture dish 401 for 48 hours prior to measurements. Medium was removed and 2 ml of the drug under study was applied for 10 minutes. Adhesion was measured using a glass micropipette 402 connected to a vacuum pump 403 via plastic tubing 404. The tip of the micropipette was drawn to about 20 μm (range, 17-24 μm) tip diameter. The vacuum pump was used to create negative pressure inside a reservoir 405 so that the negative pressure could be applied to the tip of the micropipette by pressing the thumb to the open end of a sealable T-piece 406. […] The pressure was measured using a digital manometer 409 connected to a computer 410 via a RS232 cable 411. Using a micromanipulator 412, the micropipette 402 was positioned on the periphery of a single cell. […] The negative pressure required to detach the cell was recorded on the computer as a pressure spike. The peak of the spike (“detachment negative pressure” (DNP)) was used as a measure of the cell's adhesiveness. Using this technique, several recordings could be made from a single dish within minutes. […] In order to test for the reversibility of a given effect, the pharmacological agent was washed off, fresh medium was added and the plate was incubated for a further 10 minutes prior to re-measurement. Each treatment was carried out on at least two dishes of cells, at least 100 cells per dish were measured, and the experiment was repeated three times (with corresponding controls). In the single cell adhesion experiments, hypoxia was induced chemically by application of hydrogen peroxide (1-500 μM) for 24 hours.

OO [hydrogen peroxide]
mean detachment negative pressure (ΔDNP versus untreated control) (hydrogen peroxide 1 μM): approximately −9%
mean detachment negative pressure (ΔDNP versus untreated control) (hydrogen peroxide 10 μM): approximately −14%
mean detachment negative pressure (ΔDNP versus untreated control) (hydrogen peroxide 100 μM): approximately −20%
